Target: PI-3 kinase γ (Homo sapiens, UniProt P48736)
Assay: PI3Kγ inhibitory activity, PI3-kinase HTRF assay (inhibition ratio)
Type: biochemical
Details: 0.5 h; for inhibition at 10 µM: compound at 10 μmol/L; for inhibition at 50 µM: compound at 50 μmol/L
How it was run: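 Single-concentration inhibition ratio (50 or 10 μmol/L compound) versus no-compound (100%) and no-enzyme (0%) wells. Reaction: PI-3 kinase γ, PIP2, ATP, MgCl2/DTT, 30 min at RT after 10 min preincubation. Read-out: HTRF 665/620 nm after 18 h detection.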

Sequence of PI-3 kinase γ (P48736 whole entry): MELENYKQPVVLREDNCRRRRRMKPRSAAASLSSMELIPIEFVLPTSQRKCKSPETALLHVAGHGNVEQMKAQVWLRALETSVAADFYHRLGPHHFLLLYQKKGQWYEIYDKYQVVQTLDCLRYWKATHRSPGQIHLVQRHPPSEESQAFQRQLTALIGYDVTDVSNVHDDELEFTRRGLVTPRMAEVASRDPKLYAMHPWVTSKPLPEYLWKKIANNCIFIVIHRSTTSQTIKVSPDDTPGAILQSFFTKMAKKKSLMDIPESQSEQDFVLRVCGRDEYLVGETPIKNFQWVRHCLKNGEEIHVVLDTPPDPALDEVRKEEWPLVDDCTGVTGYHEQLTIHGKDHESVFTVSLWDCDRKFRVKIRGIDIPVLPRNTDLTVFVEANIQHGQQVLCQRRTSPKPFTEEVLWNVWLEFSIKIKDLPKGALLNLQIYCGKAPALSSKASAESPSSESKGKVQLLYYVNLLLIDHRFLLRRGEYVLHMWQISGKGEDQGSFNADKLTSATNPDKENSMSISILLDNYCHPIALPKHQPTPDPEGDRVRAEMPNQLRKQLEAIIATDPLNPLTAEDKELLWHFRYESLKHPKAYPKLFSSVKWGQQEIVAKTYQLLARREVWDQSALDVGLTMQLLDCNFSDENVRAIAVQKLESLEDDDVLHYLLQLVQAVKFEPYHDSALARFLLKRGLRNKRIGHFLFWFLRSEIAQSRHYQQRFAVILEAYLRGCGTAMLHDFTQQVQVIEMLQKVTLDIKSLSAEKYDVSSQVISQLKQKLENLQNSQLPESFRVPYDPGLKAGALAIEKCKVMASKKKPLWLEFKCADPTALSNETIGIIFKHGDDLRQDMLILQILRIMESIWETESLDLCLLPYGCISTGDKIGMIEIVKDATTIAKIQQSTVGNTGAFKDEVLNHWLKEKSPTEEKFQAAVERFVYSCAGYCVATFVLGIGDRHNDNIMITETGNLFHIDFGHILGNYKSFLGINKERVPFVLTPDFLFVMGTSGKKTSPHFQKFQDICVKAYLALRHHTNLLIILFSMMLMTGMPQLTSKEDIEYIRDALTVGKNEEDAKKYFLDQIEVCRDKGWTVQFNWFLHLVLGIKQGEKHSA

SMILES | inhibition at 10 µM [%] | inhibition at 50 µM [%]
CNC(=O)Nc1nc2c(s1)CN(c1cc(N(C)C)nc(OC)n1)CC2 [Compound I-362] | ≥ 95 | 
COC(=O)Nc1cc[nH]c1C(=O)Nc1cc2n(n1)CCN2c1cccc(OC)c1 [Compound I-364] | ≥ 95 | 
CN1CCc2cc(N3CCn4nc(NC(=O)c5ccc(Br)s5)cc43)ccc2C1=O [Compound I-365] |  | 81
CN1CCc2cc(N3CCn4nc(NC(=O)Nc5cccs5)cc43)ccc2C1=O [Compound I-367] | 86 | 
CN1CCc2cc(N3CCn4nc(NC(=O)Nc5ccsc5)cc43)ccc2C1=O [Compound I-368] | 95 | 
CN1CCc2cc(N3CCn4nc(NC(=O)NC5CCCC5)cc43)ccc2C1=O [Compound I-369] |  | ≥ 95
CN1CCc2cc(N3CCn4nc(NC(=O)NCc5ccccc5)cc43)ccc2C1=O [Compound I-370] | 84 | 
CN1CCc2cc(N3CCn4nc(NC(=O)c5ccc(N6CCCC6)s5)cc43)ccc2C1=O [Compound I-371] | ≥ 95 | 
CN1CCc2cc(N3CCn4nc(NC(=O)C5CCCO5)cc43)ccc2C1=O (stereo not drawn) [Compound I-372] |  | 84
CN1CCc2cc(N3CCn4nc(NC(=O)c5csc6ccccc56)cc43)ccc2C1=O [Compound I-373] |  | 82
CN1CCc2cc(N3CCn4nc(NC(=O)c5cnc(NC(=O)OC(C)(C)C)o5)cc43)ccc2C1=O [Compound I-376] | ≥ 95 | 
CN1CCc2cc(N3CCn4nc(NC(=O)c5cnc(Br)s5)cc43)ccc2C1=O [Compound I-377] | ≥ 95 | 
CN1CCc2cc(N3CCn4nc(NC(=O)c5cnc(N)o5)cc43)ccc2C1=O [Compound I-381] | ≥ 95 | 
CN1CCc2cc(N3CCn4nc(NC(=O)c5cc6cccnc6[nH]5)cc43)ccc2C1=O [Compound I-385] | 91 | 
CN1CCc2cc(N3CCn4nc(NC(=O)c5ccc(N)nc5)cc43)ccc2C1=O [Compound I-386] | ≥ 95 | 
CN1CCc2cc(N3CCn4nc(NC(=O)c5ccc(C(=O)O)s5)cc43)ccc2C1=O [Compound I-391] | ≥ 95 | 
COc1cc(N2CCc3nc(NC(=O)N/C(C)=C\C(=O)NC(C)(C)C)sc3C2)nc(OC)n1 [Compound I-392] | ≥ 95 | 
CN1CCc2cc(N3CCn4nc(NC(=O)c5csc(Br)c5)cc43)ccc2C1=O [Compound I-396] | 76 | 
COC(=O)c1csc(C(=O)Nc2cc3n(n2)CCN3c2ccc3c(c2)CCN(C)C3=O)c1 [Compound I-399] | ≥ 95 | 
CN1CCc2cc(N3CCn4nc(NC(=O)c5cc(C(=O)O)cs5)cc43)ccc2C1=O [Compound I-401] | 93 | 
CN1CCc2cc(N3CCn4nc(NC(=O)c5ccc(C(N)=O)s5)cc43)ccc2C1=O [Compound I-404] | 78 | 
CNC(=O)c1ccc(C(=O)Nc2cc3n(n2)CCN3c2ccc3c(c2)CCN(C)C3=O)s1 [Compound I-406] | ≥ 95 | 
COCCNC(=O)c1ccc(C(=O)Nc2cc3n(n2)CCN3c2ccc3c(c2)CCN(C)C3=O)s1 [Compound I-410] | ≥ 95 | 
CN1CCc2cc(N3CCn4nc(NC(=O)c5ccc(C(=O)NCC(=O)OC(C)(C)C)s5)cc43)ccc2C1=O [Compound I-411] | ≥ 95 | 

SMILES | inhibition at 10 µM [%] | inhibition at 50 µM [%]
CN1CCc2cc(N3CCn4nc(NC(=O)c5csc(C(=O)OC(C)(C)C)c5)cc43)ccc2C1=O [Compound I-413] | 87 | 
CN1CCc2cc(N3CCn4nc(NC(=O)c5csc(C(=O)O)c5)cc43)ccc2C1=O [Compound I-418] | 93 | 
CC(C)NC(=O)c1cc(C(=O)Nc2cc3n(n2)CCN3c2ccc3c(c2)CCN(C)C3=O)cs1 [Compound I-419] | 83 | 
CC(C)c1cc(C(=O)Nc2cc3n(n2)CCN3c2ccc3c(c2)CCN(C)C3=O)cs1 [Compound I-427] | 88 | 
CC(C)NS(=O)(=O)c1cc(C(=O)Nc2cc3n(n2)CCN3c2ccc3c(c2)CCN(C)C3=O)cs1 [Compound I-428] | 90 | 
COc1cc(N2CCc3nc(NC(=O)Nc4ccccc4Cl)sc3C2)nc(OC)n1 [Compound I-430] | 84 | 
CC(C)N(C)C(=O)c1cc(C(=O)Nc2cc3n(n2)CCN3c2ccc3c(c2)CCN(C)C3=O)cs1 [Compound I-433] | ≥ 95 | 
CN1CCc2cc(N3CCn4nc(NC(=O)c5csc(S(=O)(=O)N6CCCC6)c5)cc43)ccc2C1=O [Compound I-436] | ≥ 95 | 
CNS(=O)(=O)c1cc(C(=O)Nc2cc3n(n2)CCN3c2ccc3c(c2)CCN(C)C3=O)cs1 [Compound I-437] | ≥ 95 | 
CN1CCc2cc(N3CCn4nc(NC(=O)c5csc(C(=O)NC(C)(C)C)c5)cc43)ccc2C1=O [Compound I-438] | 86 | 
CN1CCc2cc(N3CCn4nc(NC(=O)c5csc(C(=O)NCC(C)(C)C)c5)cc43)ccc2C1=O [Compound I-439] | ≥ 95 | 
CC(=O)c1ccc(C(=O)Nc2cc3n(n2)CCN3c2ccc3c(c2)CCN(C)C3=O)s1 [Compound I-440] | 92 | 
CC(C)NC(=O)c1ccccc1NC(=O)Nc1nc2c(s1)CN(C(=O)OCc1ccccc1)CC2 [Compound I-441] | 88 | 
Cc1ccsc1C(=O)Nc1cc2n(n1)CCN2c1ccc2c(c1)CCN(C)C2=O [Compound I-444] | 84 | 
CN1CCc2cc(N3CCn4nc(NC(=O)c5sccc5Cl)cc43)ccc2C1=O [Compound I-445] | 89 | 
Cc1ncsc1C(=O)Nc1cc2n(n1)CCN2c1ccc2c(c1)CCN(C)C2=O [Compound I-449] | ≥ 95 | 
CN1CCc2cc(N3CCn4nc(NC(=O)C(=O)c5cccs5)cc43)ccc2C1=O [Compound I-450] | ≥ 95 | 
CN(C)C(=O)c1ccc(C(=O)Nc2cc3n(n2)CCN3c2ccc3c(c2)CCN(C)C3=O)s1 [Compound I-451] | 90 | 
CN1CCc2cc(N3CCn4nc(NC(=O)N5CCCC5)cc43)ccc2C1=O [Compound I-453] | 76 | 
COc1cc(N2CCc3nc(NC(=O)c4ccc(C)o4)sc3C2)nc(OC)n1 [Compound I-456] | 87 | 
CCOc1ccc(C(=O)Nc2nc3c(s2)CN(c2cc(OC)nc(OC)n2)CC3)o1 [Compound I-457] | 88 | 
COc1cc(N2CCc3nc(NC(=O)c4ccc(C)s4)sc3C2)nc(OC)n1 [Compound I-458] | 92 | 
COc1cc(N2CCc3nc(NC(=O)c4ccsc4)sc3C2)nc(OC)n1 [Compound I-459] | 92 | 
CN1CCc2cc(N3CCn4nc(NC(=O)c5cccc(O)c5)cc43)ccc2C1=O [Compound I-461] | 95 | 

SMILES | inhibition at 10 µM [%] | inhibition at 50 µM [%]
COc1cccc(C(=O)Nc2cc3n(n2)CCN3c2ccc3c(c2)CCN(C)C3=O)c1 [Compound I-462] | ≥ 95 | 
CC(C)Oc1cccc(C(=O)Nc2cc3n(n2)CCN3c2ccc3c(c2)CCN(C)C3=O)c1 [Compound I-463] | ≥ 95 | 
CN1CCc2cc(N3CCn4nc(NC(=O)c5cccc(F)c5)cc43)ccc2C1=O [Compound I-464] | ≥ 95 | 
CN1CCc2cc(N3CCn4nc(NC(=O)c5cccc(C(=O)OC(C)(C)C)c5)cc43)ccc2C1=O [Compound I-465] | ≥ 95 | 
CN1CCc2cc(N3CCn4nc(NC(=O)c5cccc(NC(=O)OC(C)(C)C)c5)cc43)ccc2C1=O [Compound I-466] | 83 | 
COCn1ccc(C(=O)Nc2cc3n(n2)CCN3c2ccc3c(c2)CCN(C)C3=O)n1 [Compound I-467] | ≥ 95 | 
CC(Oc1cccc(C(=O)Nc2cc3n(n2)CCN3c2ccc3c(c2)CCN(C)C3=O)c1)C(N)=O (stereo not drawn) [Compound I-468] | ≥ 95 | 
CN1CCc2cc(N3CCn4nc(NC(=O)c5cccc(OC(C)(C)C(=O)OC(C)(C)C)c5)cc43)ccc2C1=O [Compound I-469] | 85 | 
CC(C)NC(=O)Nc1cccc(C(=O)Nc2cc3n(n2)CCN3c2ccc3c(c2)CCN(C)C3=O)c1 [Compound I-470] | 79 | 
CC(=O)Nc1nc2ccn(-c3cccc(Cl)c3)c2s1 [Compound I-471] | 91 | 
CN1CCc2cc(N3CCn4nc(NC(=O)c5cccc(C(=O)O)c5)cc43)ccc2C1=O [Compound I-472] | ≥ 95 | 
CN1CCc2cc(N3CCn4nc(NC(=O)c5cccc(N)c5)cc43)ccc2C1=O [Compound I-473] | ≥ 95 | 
CN1CCc2cc(N3CCn4nc(NC(=O)c5cccc(OC(C)(C)C(=O)O)c5)cc43)ccc2C1=O [Compound I-474] | ≥ 95 | 
CCCOc1ccc(C(=O)Nc2cc3n(n2)CCN3c2ccc3c(c2)CCN(C)C3=O)cc1 [Compound I-476] | 94 | 
CCCCOc1ccc(C(=O)Nc2cc3n(n2)CCN3c2ccc3c(c2)CCN(C)C3=O)cc1 [Compound I-477] | 82 | 
CN1CCc2cc(N3CCn4nc(NC(=O)c5ccc(NC(=O)OC(C)(C)C)cc5)cc43)ccc2C1=O [Compound I-480] | 86 | 
CN1CCc2cc(N3CCn4nc(NC(=O)c5ccc(S(C)(=O)=O)cc5)cc43)ccc2C1=O [Compound I-481] | 92 | 
COC(=O)Nc1ccccc1C(=O)Nc1cc2n(n1)CCN2c1ccc2c(c1)CCN(C)C2=O [Compound I-482] | ≥ 95 | 
COc1ccc(C(=O)N2CCc3nc(NC(=O)Nc4ccccc4C(=O)NC(C)C)sc3C2)cc1 [Compound I-483] | ≥ 95 | 
COc1cccc(C(=O)N2CCc3nc(NC(=O)Nc4ccccc4C(=O)NC(C)C)sc3C2)c1 [Compound I-484] | ≥ 95 | 
COc1ccccc1C(=O)N1CCc2nc(NC(=O)Nc3ccccc3C(=O)NC(C)C)sc2C1 [Compound I-485] | 79 | 
CC(C)NC(=O)c1ccccc1NC(=O)Nc1nc2c(s1)CN(C(=O)c1ccccc1)CC2 [Compound I-488] | 88 | 
CN1CCc2cc(N3CCn4nc(NC(=O)c5ccc(N)cc5)cc43)ccc2C1=O [Compound I-489] | ≥ 95 | 
CN1CCc2cc(N3CCn4nc(NC(=O)c5ccccc5NC(=O)OC(C)(C)C)cc43)ccc2C1=O [Compound I-493] | 91 | 

Source: US20110230472A1, “RING-FUSED AZOLE DERIVATIVE HAVING PI3K-INHIBITING ACTIVITY” (Shionogi & Co., Ltd., priority 2008, published 2011)
